Measurements reported in PubChem BioAssay AID248 (DTP/NCI, 2004).
Inconclusive results and toxic doses are left out. Rule as the data show it: active = T/C of 150% or more; inactive = T/C below 125%.

Tested on: L1210 leukemia ip in BDF1 mice, survival T/C
Experiment: NCI In Vivo Anticancer Drug Screen. Data for tumor model L1210 Leukemia (intraperitoneal) in B6D2F1 (BDF1) mice
Conditions: endpoint: mean survival time, higher = longer survival
Summary of the method: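 Transplanted-tumor mice were given test agent; controls received vehicle only. Survival readings from the two groups were divided (treated over control).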

[1] = dose: 100.0 mg/kg/injection, schedule: Q04DX002 (ip), vehicle: Klucel (hydroxypropylcellulose) (HPC)
[2] = dose: 200.0 mg/kg/injection, schedule: Q04DX002 (ip), vehicle: Klucel (hydroxypropylcellulose) (HPC)
[3] = dose: 100.0 mg/kg/injection, schedule: Q01DX001 (ip), vehicle: Klucel (hydroxypropylcellulose) (HPC)
[4] = dose: 200.0 mg/kg/injection, schedule: Q01DX001 (ip), vehicle: Klucel (hydroxypropylcellulose) (HPC)
[5] = dose: 400.0 mg/kg/injection, schedule: Q01DX001 (ip), vehicle: Klucel (hydroxypropylcellulose) (HPC)
[6] = dose: 100.0 mg/kg/injection, schedule: Q04DX003 (ip), vehicle: saline with Tween-80
[7] = dose: 200.0 mg/kg/injection, schedule: Q04DX003 (ip), vehicle: saline with Tween-80
[8] = dose: 100.0 mg/kg/injection, schedule: Q04DX003 (ip), vehicle: Klucel (hydroxypropylcellulose) (HPC)
[9] = dose: 200.0 mg/kg/injection, schedule: Q04DX003 (ip), vehicle: Klucel (hydroxypropylcellulose) (HPC)
[10] = dose: 400.0 mg/kg/injection, schedule: Q04DX003 (ip), vehicle: Klucel (hydroxypropylcellulose) (HPC)
[11] = dose: 100.0 mg/kg/injection, schedule: Q01DX009 (ip), vehicle: saline with Tween-80
[12] = dose: 200.0 mg/kg/injection, schedule: Q01DX009 (ip), vehicle: saline with Tween-80
[13] = dose: 100.0 mg/kg/injection, schedule: Q01DX001 (ip), vehicle: carboxymethylcellulose (CMC)
[14] = dose: 200.0 mg/kg/injection, schedule: Q01DX001 (ip), vehicle: carboxymethylcellulose (CMC)
[15] = dose: 400.0 mg/kg/injection, schedule: Q01DX001 (ip), vehicle: carboxymethylcellulose (CMC)
[16] = dose: 100.0 mg/kg/injection, schedule: Q01DX009 (ip), vehicle: Klucel (hydroxypropylcellulose) (HPC)
[17] = dose: 200.0 mg/kg/injection, schedule: Q01DX009 (ip), vehicle: Klucel (hydroxypropylcellulose) (HPC)
[18] = dose: 400.0 mg/kg/injection, schedule: Q01DX009 (ip), vehicle: Klucel (hydroxypropylcellulose) (HPC)

Measured: T/C

Cc1cccc(Cl)c1OC(=O)Nc1ccccc1
inactive: dose: 50.0 mg/kg/injection, schedule: Q04DX002 (ip), vehicle: Klucel (hydroxypropylcellulose) (HPC) 98 % of control | [1] 98 % of control | [2] 102 % of control

CC(=O)CC(=O)Nc1cccc(NC(=O)CC(C)=O)c1
inactive: [3] 99 % of control | [4] 94 % of control | [5] 101 % of control

CC(C)N1CNC(=O)C12CCN(CC1COc3ccccc3O1)CC2 (stereo not given)
inactive: [6] 104 % of control | [7] 106 % of control

COc1ccc(OC)c(CC(CC(=O)O)(C(=O)O)C(=O)O)c1
inactive: [8] 91 % of control | [9] 96 % of control | [10] 96 % of control

CN1C(=O)N(C)C(=O)C(O)(C2(O)C(=O)N(C)C(=O)N(C)C2=O)C1=O
inactive: dose: 9.38 mg/kg/injection, schedule: Q01DX001 (ip), vehicle: other 94 % of control | dose: 18.75 mg/kg/injection, schedule: Q01DX001 (ip), vehicle: other 94 % of control | dose: 37.5 mg/kg/injection, schedule: Q01DX001 (ip), vehicle: other 101 % of control

CC(C)(CO)C(O)C(=O)NCCCCC1CCCCC1 (stereo not given)
inactive: [8] 98 % of control | [9] 93 % of control | [10] 88 % of control

CSC(=S)NCC(=O)O
inactive: dose: 50.0 mg/kg/injection, schedule: Q01DX009 (ip), vehicle: saline with Tween-80 89 % of control | [11] 89 % of control | [12] 101 % of control

CSCc1ccccn1
inactive: dose: 50.0 mg/kg/injection, schedule: Q01DX001 (ip), vehicle: saline 106 % of control | dose: 100.0 mg/kg/injection, schedule: Q01DX001 (ip), vehicle: saline 101 % of control | dose: 200.0 mg/kg/injection, schedule: Q01DX001 (ip), vehicle: saline 93 % of control | dose: 400.0 mg/kg/injection, schedule: Q01DX001 (ip), vehicle: saline 104 % of control

CCc1nc(-c2ccccc2)c(-c2ccccc2)[nH]1
inactive: [11] 90 % of control | [12] 98 % of control | dose: 400.0 mg/kg/injection, schedule: Q01DX009 (ip), vehicle: saline with Tween-80 87 % of control

CCCCN1C(=O)NC(=O)C1c1ccsc1 (stereo not given)
inactive: [13] 103 % of control | [14] 94 % of control | [15] 100 % of control

O=C(O)c1cccc2c1C(=O)c1ccccc1-2
inactive: [3] 93 % of control | [4] 106 % of control | [5] 101 % of control

COc1ccc(-c2cccc(-c3ccccc3)n2)cc1
inactive: dose: 12.5 mg/kg/injection, schedule: Q04DX003 (ip), vehicle: Klucel (hydroxypropylcellulose) (HPC) 91 % of control | dose: 25.0 mg/kg/injection, schedule: Q01DX009 (ip), vehicle: Klucel (hydroxypropylcellulose) (HPC) 106 % of control | dose: 25.0 mg/kg/injection, schedule: Q04DX003 (ip), vehicle: Klucel (hydroxypropylcellulose) (HPC) 98 % of control | dose: 50.0 mg/kg/injection, schedule: Q01DX009 (ip), vehicle: Klucel (hydroxypropylcellulose) (HPC) 100 % of control | dose: 50.0 mg/kg/injection, schedule: Q04DX003 (ip), vehicle: Klucel (hydroxypropylcellulose) (HPC) 98 % of control | [16] 89 % of control | [8] 96 % of control

CCCCCCCCP(=S)(CCCCCC)CCCCCC
inactive: dose: 100.0 mg/kg/injection, schedule: Q01DX001 (ip), vehicle: saline with Tween-80 104 % of control | dose: 200.0 mg/kg/injection, schedule: Q01DX001 (ip), vehicle: saline with Tween-80 90 % of control | dose: 400.0 mg/kg/injection, schedule: Q01DX001 (ip), vehicle: saline with Tween-80 87 % of control

O=C(/C=C/c1ccccc1)C1CC1
inactive: dose: 100.0 mg/kg/injection, schedule: Q04DX003 (ip), vehicle: other 101 % of control | dose: 200.0 mg/kg/injection, schedule: Q04DX003 (ip), vehicle: other 98 % of control | dose: 400.0 mg/kg/injection, schedule: Q04DX003 (ip), vehicle: other 98 % of control

O=CC(OC(=O)c1ccccc1)C(OC(=O)c1ccccc1)C(COC(c1ccccc1)(c1ccccc1)c1ccccc1)OC(=O)c1ccccc1 (stereo not given)
inactive: dose: 50.0 mg/kg/injection, schedule: Q01DX001 (ip), vehicle: carboxymethylcellulose (CMC) 97 % of control | [13] 103 % of control | [14] 103 % of control | [15] 91 % of control

CN(CSc1c(Cl)c(Cl)c(Cl)c(Cl)c1Cl)c1ccccc1
inactive: [1] 103 % of control | [2] 98 % of control | dose: 400.0 mg/kg/injection, schedule: Q04DX002 (ip), vehicle: Klucel (hydroxypropylcellulose) (HPC) 93 % of control

Cc1c(Cl)cccc1NC(=O)C(c1ccccc1)c1ccccc1
inactive: [16] 89 % of control | [8] 101 % of control | [17] 94 % of control | [9] 86 % of control | [18] 93 % of control | [10] 91 % of control

O=C(NCCCl)NC1CCCCCCCCCCC1
inactive: [16] 98 % of control | [8] 100 % of control | [17] 97 % of control | [9] 102 % of control | [18] 89 % of control | [10] 102 % of control

Cn1c2ccccc2c(=O)c2cc(N)ccc21
inactive: dose: 100.0 mg/kg/injection, schedule: Q04DX003 (ip), vehicle: saline 95 % of control | dose: 200.0 mg/kg/injection, schedule: Q04DX003 (ip), vehicle: saline 98 % of control | dose: 400.0 mg/kg/injection, schedule: Q04DX003 (ip), vehicle: saline 104 % of control

CC1=CCC(C/C=N/N=C/CC2CC=C(C)C2(C)C)C1(C)C (stereo not given)
inactive: dose: 100.0 mg/kg/injection, schedule: Q01DX009 (sc), vehicle: olive oil, sesame oil, peanut oil 100 % of control | dose: 100.0 mg/kg/injection, schedule: Q04DX003 (sc), vehicle: olive oil, sesame oil, peanut oil 97 % of control | dose: 200.0 mg/kg/injection, schedule: Q01DX009 (sc), vehicle: olive oil, sesame oil, peanut oil 100 % of control | dose: 200.0 mg/kg/injection, schedule: Q04DX003 (sc), vehicle: olive oil, sesame oil, peanut oil 101 % of control | dose: 400.0 mg/kg/injection, schedule: Q01DX009 (sc), vehicle: olive oil, sesame oil, peanut oil 98 % of control | dose: 400.0 mg/kg/injection, schedule: Q04DX003 (sc), vehicle: olive oil, sesame oil, peanut oil 106 % of control

CCOC(=O)N1CC2CCC(C1)N2C
inactive: dose: 12.5 mg/kg/injection, schedule: Q04DX003 (ip), vehicle: saline 103 % of control | dose: 25.0 mg/kg/injection, schedule: Q04DX003 (ip), vehicle: saline 106 % of control | dose: 50.0 mg/kg/injection, schedule: Q04DX003 (ip), vehicle: saline 101 % of control

COC(=O)C(CC(C)C)NC(=O)CN(C)C(=O)OCc1ccccc1 (stereo not given)
inactive: dose: 75.0 mg/kg/injection, schedule: Q04DX003 (sc), vehicle: olive oil, sesame oil, peanut oil 105 % of control | dose: 150.0 mg/kg/injection, schedule: Q04DX003 (sc), vehicle: olive oil, sesame oil, peanut oil 103 % of control | dose: 300.0 mg/kg/injection, schedule: Q04DX003 (sc), vehicle: olive oil, sesame oil, peanut oil 108 % of control

CCc1nc2ccccc2[nH]1
inactive: [6] 97 % of control | [7] 102 % of control

COc1ccc(S(=O)(=O)Nc2cc([N+](=O)[O-])ccc2OC)cc1
inactive: [16] 103 % of control | [17] 97 % of control | [18] 95 % of control

CCOC(=O)Nc1ccc2c(c1)/C(=N\NC(=S)NC)c1ccccc1-2
inactive: dose: 75.0 mg/kg/injection, schedule: Q01DX001 (ip), vehicle: carboxymethylcellulose (CMC) 90 % of control | dose: 150.0 mg/kg/injection, schedule: Q01DX001 (ip), vehicle: carboxymethylcellulose (CMC) 92 % of control | dose: 300.0 mg/kg/injection, schedule: Q01DX001 (ip), vehicle: carboxymethylcellulose (CMC) 88 % of control

COc1ccc([N+](=O)[O-])c2c(C)cc(=O)[nH]c12
inactive: [3] 100 % of control | [16] 104 % of control | [4] 94 % of control | [17] 97 % of control | [5] 94 % of control

CC(C)CC(NC(=O)OC(C)(C)C)C(=O)NC(Cc1c[nH]c2ccccc12)C(=O)NN (stereo not given)
inactive: [13] 88 % of control | [15] 94 % of control
